This note sets out measurements from US20100190715A1, “Stable Formulations of Peptides” (Novo Nordisk A/S, priority 2003, published 2010).

Data set [1] in a line: ThT fluorescence assay of fibril formation (physical stability). Format: physicochemical. The protocol:
FIG. 1. ThT fluorescence assay of fibril formation in acylated GLP-1 samples. The samples contain 6 mg/ml acylated GLP-1, 5 μM ThT dissolved in water and adjusted to the stated pH. Experimental conditions are described in “Examples”. Briefly, the samples were incubated at 40° C. and shaken with 960 rpm in an Ascent Fluoroskan fluorescence plate reader. All data points are from the same experiment (i.e. all samples are from the same microtiterplate) and are means of eight replica and shown with standard deviations as error bars. Furthermore, these values at 20 and 40 hours are tabulated for each sample.
Low physical stability of a peptide may lead to amyloid fibril formation, which is observed as well-ordered, thread-like macromolecular structures in the sample eventually resulting in gel formation. This has traditionally been measured by visual inspection of the sample. However, that kind of measurement is very subjective and depending on the observer. Therefore, the application of a small molecule indicator probe is much more advantageous. Thioflavin T (ThT) is such a probe and has a distinct fluorescence signature when binding to fibrils [Naiki et al. (1989) Anal. Biochem. 177, 244-249; LeVine (1999) Methods. Enzymol. 309, 274-284].
The time course for fibril formation can be described by a sigmoidal curve with the following expression [Nielsen et al. (2001) Biochemistry 40, 6036-6046]:
Here, F is the ThT fluorescence at the time t (see FIG. 12). The constant t0 is the time needed to reach 50% of maximum fluorescence. The two important parameters describing fibril formation are the lag-time calculated by t0−2τ and the apparent rate constant kapp=1/τ.
Samples were prepared freshly before each assay. Usually, acylated GLP-1 was dissolved to 6 mg/ml in desired buffer or solvent. The pH of the sample was adjusted to the desired value using appropriate amounts of concentrated NaOH and HClO4. Thioflavin T was added to the samples from a 1 mM stock solution in H2O to a final concentration of 5 μM.
Sample aliquots of 100 μl were placed in a 96 well microtiter plate (Packard Opti-Plate™-96, white polystyrene). Usually, eight replica of each sample (corresponding to one test condition) was placed in one column of wells. The plate was sealed with Scotch Pad (Qiagen).
Incubation at given temperature, shaking and measurement of the ThT fluorescence emission were done in a Fluoroskan Ascent FL fluorescence platereader (Thermo Labsystems). Temperature setting is possible up till 45° C., but usually sat at 40° C. The orbital shaking is selectable up till 1200 rpm, but adjusted to 960 rpm with an amplitude of 1 mm in all the presented data. Fluorescence measurement was done using excitation through a 444 nm filter and measurement of emission through a 485 nm filter.
Each run was initiated by incubating the plate at the assay temperature for 10 min. The plate was measured each hour for typically 45 hours. Between each measurement, the plate was shaken and heated as adjusted.
The measurement points were saved in Microsoft Excel format for further processing and curve drawing and fitting was performed using GraphPad Prism. The background emission from ThT in the absence of fibrils was negligible. The data points are typically a mean of eight samples and shown with standard deviation error bars. Only data obtained in the same experiment (i.e. samples on the same plate) are presented in the same graph ensuring a relative measure of fibrillation between experiments.
The data set may be fitted to Eq. (1). However, since full sigmodial curves in this case are not usually achieved during the measurement time, the degree of fibrillation is expressed as ThT fluorescence at 20 and 40 hours, calculated as the mean of the eight samples and shown with the standard deviation.

Data set [2] is described as follows: Proton NMR spectroscopy of solvent and buffer effects on structure and dynamics in solution. The data set is classed as physicochemical. The protocol:
FIG. 10. Proton NMR spectrum of acylated GLP-1 with different additives at pH 7.9. N-terminal histidine signals of the imidazol sidechain are observed at approx 7.80 ppm and 7.00 ppm. The linewidth and position reflects the reduced flexibility of the N-terminal. NMR samples were prepared with 6 mg/ml acylated GLP-1 at pH 7.9 dissolved in 90%/10% H2O/D2O. NMR spectra were recorded at 600 MHz using a Varian Inova 600 MHz NMR instrument using 5 mm samples tubes. Sample volumes were 800 ul and spectra were measured at 27 degrees Celsius
FIG. 11. Amide protons of glu-9 (8.65 ppm) and gly-10 (8.42 ppm) under the same conditions as in FIG. 10. More intense amide proton signals reflect that these protons are relatively better shielded structurally from exchange with the water.
Proton NMR spectroscopy of proteins in solutions has become a powerful technique to study structure and dynamics of a pure protein in solution (Wüthrich, K, “NMR of Proteins and Nucleic Acids”, (1986), ISBN 0-471-82893-9). Each proton (or proton group) in a protein will give rise to a resonance peak at a frequency which depends on the chemical and physical environment in the vicinity of each proton (or proton group) in the protein. A skilled artisan in the field of protein NMR spectroscopy will be able to assign most of the resonance peaks of a proton NMR spectrum of a protein to specific protons (or proton groups) in the protein given that the actual behavior of the protein in solution give rise to a well resolved proton NMR spectrum (well known to the skilled artisan in the field). The line width of the resonance peaks in the protein NMR spectrum reflects to some extend the size and dynamic properties of the protein in solution.
Aqueous solution of acylated GLP-1 at concentrations between 1 and 30 mg/ml, with or without buffers in the pH range 7.0 to 8.2 give rise to NMR spectra that to a high extend allow the afore mentioned resonance assignment. Thus several resonances of the NMR spectrum of this peptide can be assigned to specific atomic groups in the peptide. Recording NMR spectra of acylated GLP-1 under the conditions mentioned above but with different buffer substances in the solution allows a direct comparison of the structural and dynamical changes that acylated GLP-1 undergo as different buffers are applied.

Consider “Arg^34, Lys^26(N^ε-(γ-Glu(N^α-hexadecanoyl)))-GLP-1(7-37) [acylated GLP-1]”, for which the fibril formation entry in data set [1] (8 mM phosphate, pH8.15) is given as “fibril formation is already observed”. Also, the fibrillation result is “without significantly increasing the fibrillation compared to water at pH7.89” in data set [1] (10 mM BICINE buffer); “without significantly increasing the fibrillation compared to water at pH7.89” in data set [1] (10 mM HEPES buffer); “promotes fibrillation” in data set [1] (10 mM NaCl added to solution in water pH 7.9); “No significant fibrillation” in data set [1] (water adjusted to pH7.85, incubated 45 hours); “No significant fibrillation” in data set [1] (water adjusted to pH8.14, incubated 45 hours). The physical stability entry in data set [1] (10 mM HEPES pH7.73) is “as physically stable as in 8 mM phosphate pH8.15”; in data set [1] (10 mM HEPES, pH gradually lowered from pH7.9 to pH7.51) it was “slightly more physically unstable”; in data set [1] (10 mM His, lowering the pH), “only marginally less stable”; in data set [1] (10 mM His, pH 7.5), “much more physically stable than acylated GLP-1 in non buffered aqueous solution pH7.5”; in data set [1] (10 mM His, pH7.9), “same physical stability of acylated GLP-1 as obtained in water at pH7.9”; in data set [1] (10 mM MOPS), “more physical stable than a solution in 8 mM phosphate at pH8.14”. Further, the physical stability result in data set [1] (10 mM TES) was “more physical stable than a solution in 8 mM phosphate at pH8.14”; in data set [1] (aqueous solution non buffered or buffered with HEPES or BICINE, versus 8 mM phosphate pH7.92) it was “significantly more physically stable”; in data set [1] (dissolved in water rather than phosphate buffer (8 mM), 6 mg/ml, 40° C., 960 rpm) it was “significant increase in physical stability”; in data set [1] (water at pH7.53) it was “comparable with 8 mM phosphate pH7.88”. For the same substance, in data set [1] (lowering pH in the interval pH 8.2 to pH 7.5, all examples), the fibrillation lag-time result is “shorter and shorter fibrillation lag-times”. Besides, the “tendency to fibril formation” value in data set [1] (phosphate lowered from 8 mM to 1 mM at pH7.9) was “Less tendency to fibril formation”. Besides, the “amide proton resonances of glutamic acid residue 9 and glycine residue 10” value in data set [2] (8 mM phosphate at pH 7.9 compared to non-buffered, 6 mg/ml) is “almost disappearance of amides protons resonances”. The “protection of amide protons of Glu 9 and Gly 10 from water” value in data set [2] (aqueous solution without buffer substance versus 8 mM phosphate buffer) was “relatively more protected from the water molecules”. Besides, the self-assembly in solution entry in data set [2] (concentration range 1 to 30 mg/ml) was “bundle up in assemblies with several but well defined and limited number of acylated GLP-1 molecules”. Further, in data set [2] (non buffered solution or buffered with HEPES, bicine or histidine, pH 7.9), the “order and rigidity of the N-terminal” value is “more ordered and rigid”.
